Experiments:
KRas G12R = KRas G12R (Homo sapiens, UniProt P01116, G12R); experiment: biochemical; conditions: Binding to KRas (IC50 nM) G12R, TR-FRET displacement, KRas G12R
H727 cells = experiment: Inhibition of KRas-mediated phosphorylation of ERK (Cisbio HTRF pERK), H727 cells; format: cell-based; conditions: Homo sapiens, NCI-H727, 3 h, 3 hr compound incubation, Cisbio pERK HTRF
KRas G12V = KRas G12V (Homo sapiens, UniProt P01116, G12V); experiment: biochemical; conditions: Binding to KRas (IC50 nM) G12V, TR-FRET displacement, KRas G12V
Chain of KRas G12V (P01116 1-169 isoform P01116-2 G12V): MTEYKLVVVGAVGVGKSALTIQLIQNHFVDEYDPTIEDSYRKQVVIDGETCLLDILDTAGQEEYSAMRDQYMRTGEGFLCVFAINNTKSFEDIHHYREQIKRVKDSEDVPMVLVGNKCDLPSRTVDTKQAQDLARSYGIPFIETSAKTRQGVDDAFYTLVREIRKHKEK

ASPC1 cells = experiment: Inhibition of KRas-mediated phosphorylation of ERK (Cisbio HTRF pERK), ASPC1 cells; format: cell-based; conditions: Homo sapiens, ASPC1, 3 h, AsPC-1 cells; 3 hr compound incubation; Cisbio pERK HTRF
KRas G12D = KRas G12D (Homo sapiens, UniProt P01116, G12D); experiment: biochemical; conditions: Binding to KRas (IC50 nM) G12D, TR-FRET displacement, KRas G12D
Chain of KRas G12D (P01116 1-169 isoform P01116-2 G12D): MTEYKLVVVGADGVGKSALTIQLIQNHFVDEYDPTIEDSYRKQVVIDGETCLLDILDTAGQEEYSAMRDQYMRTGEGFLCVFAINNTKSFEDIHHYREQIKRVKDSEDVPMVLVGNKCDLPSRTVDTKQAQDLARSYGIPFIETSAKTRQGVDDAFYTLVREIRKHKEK

Chain of KRas G12R (P01116 1-169 isoform P01116-2 G12R): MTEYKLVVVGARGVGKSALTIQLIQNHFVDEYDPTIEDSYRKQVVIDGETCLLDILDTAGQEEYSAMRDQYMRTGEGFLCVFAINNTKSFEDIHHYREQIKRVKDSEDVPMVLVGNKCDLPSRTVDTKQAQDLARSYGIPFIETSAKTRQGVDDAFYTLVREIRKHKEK

SMILES	IC50 (KRas G12R) [nM]	IC50 (H727 cells) [nM]	IC50 (KRas G12V) [nM]	IC50 (ASPC1 cells) [nM]	IC50 (KRas G12D) [nM]
CCCCCCCCCCN(C)C(=O)c1cc2n(n1)CCCN(c1nc(OC[C@@]34CCCN3C[C@H](F)C4)nc3c1CCN(c1cc(O)cc4ccc(F)c(CC)c14)C3)C2 [Example 266, N-decyl-5-(7-(8-ethyl-7-fluoro-3-hydroxynaphthalen-1-yl)-2-(((2R,7aS)-2-fluorohexahydro-1H-pyrrolizin-7a-yl)methoxy)-5,6,7,8-tetrahydropyrido[3,4-d]pyrimidin-4-yl)-N-methyl-5,6,7,8-tetrahydro-4H-pyrazolo[1,5-a][1,4]diazepine-2-carboxamide]	254	1760	104	787	133
CCCCCCCCCCNC(=O)c1cc2n(n1)CCCN(c1nc(OC[C@@]34CCCN3C[C@H](F)C4)nc3c1CCN(c1cc(O)cc4ccc(F)c(CC)c14)C3)C2 [Example 267, N-decyl-5-(7-(8-ethyl-7-fluoro-3-hydroxynaphthalen-1-yl)-2-(((2R,7aS)-2-fluorohexahydro-1H-pyrrolizin-7a-yl)methoxy)-5,6,7,8-tetrahydropyrido[3,4-d]pyrimidin-4-yl)-5,6,7,8-tetrahydro-4H-pyrazolo[1,5-a][1,4]diazepine-2-carboxamide]	256	3950	123	3620	148
CCc1c(F)ccc2cc(O)cc(N3CCc4c(nc(OC[C@@]56CCCN5C[C@H](F)C6)nc4N4CCOCC(P(C)(C)=O)C4)C3)c12 (stereo partly drawn) [Example 281, (4-(7-(8-ethyl-7-fluoro-3-hydroxynaphthalen-1-yl)-2-(((2R,7aS)-2-fluorotetrahydro-1H-pyrrolizin-7a(5H)-yl)methoxy)-5,6,7,8-tetrahydropyrido[3,4-d]pyrimidin-4-yl)-1,4-oxazepan-6-yl)dimethylphosphine oxide]	11	4440	6	> 10000	31
CCc1c(F)ccc2cc(O)cc(N3CCc4c(nc(OC[C@@]56CCCN5C[C@H](F)C6)nc4N4CCCn5nc(N(C(C)C)S(C)(=O)=O)cc5C4)C3)c12 [Example 285, N-(5-(7-(8-ethyl-7-fluoro-3-hydroxynaphthalen-1-yl)-2-(((2R,7aS)-2-fluorohexahydro-1H-pyrrolizin-7a-yl)methoxy)-5,6,7,8-tetrahydropyrido[3,4-d]pyrimidin-4-yl)-5,6,7,8-tetrahydro-4H-pyrazolo[1,5-a][1,4]diazepin-2-yl)-N-isopropylmethanesulfonamide]	773	> 10000	886	> 10000	563
CCc1c(F)ccc2cc(O)cc(N3CCc4c(nc(OC[C@@]56CCCN5C[C@H](F)C6)nc4N4CCNc5cc(Br)ccc5C4)C3)c12 [Example 348, 4-(4-(8-bromo-1,2,3,5-tetrahydro-4H-benzo[e][1,4]diazepin-4-yl)-2-(((2R,7aS)-2-fluorotetrahydro-1H-pyrrolizin-7a(5H)-yl)methoxy)-5,8-dihydropyrido[3,4-d]pyrimidin-7(6H)-yl)-5-ethyl-6-fluoronaphthalen-2-ol]	43000	> 10000	38500	> 10000	83300
CCc1c(F)ccc2cc(O)cc(N3CCc4c(nc(OC[C@@]56CCCN5C[C@H](F)C6)nc4NCC4NC(=O)NC4=O)C3)c12 (stereo partly drawn) [Example 377, 5-(((7-(8-ethyl-7-fluoro-3-hydroxynaphthalen-1-yl)-2-(((2R,7aS)-2-fluorohexahydro-1H-pyrrolizin-7a-yl)methoxy)-5,6,7,8-tetrahydropyrido[3,4-d]pyrimidin-4-yl)amino)methyl)imidazolidine-2,4-dione]	4	677	< 2	2340	4
CCc1c(F)ccc2cc(O)cc(N3CCc4c(nc(OC[C@@]56CCCN5C[C@H](F)C6)nc4NCc4cc(C(=O)N(C)C)nn4C)C3)c12 [Example 399, 5-(((7-(8-ethyl-7-fluoro-3-hydroxynaphthalen-1-yl)-2-(((2R,7aS)-2-fluorohexahydro-1H-pyrrolizin-7a-yl)methoxy)-5,6,7,8-tetrahydropyrido[3,4-d]pyrimidin-4-yl)amino)methyl)-N,N,1-trimethyl-1H-pyrazole-3-carboxamide]	8	896	4	513	3
CCc1c(F)ccc2cc(O)cc(N3CCc4c(nc(OC[C@@]56CCCN5C[C@H](F)C6)nc4N4CCCC5(CCNC5=O)C4)C3)c12 (stereo partly drawn) [Example 401, 7-(7-(8-ethyl-7-fluoro-3-hydroxynaphthalen-1-yl)-2-(((2R,7aS)-2-fluorohexahydro-1H-pyrrolizin-7a-yl)methoxy)-5,6,7,8-tetrahydropyrido[3,4-d]pyrimidin-4-yl)-2,7-diazaspiro[4.5]decan-1-one]	10	1410	22	1730	59
CCc1c(F)ccc2cc(O)cc(N3CCc4c(nc(OC[C@@]56CCCN5C[C@H](F)C6)nc4N4CCCc5occc5C4)C3)c12 [Example 423, 4-(4-(7,8-dihydro-4H-furo[3,2-c]azepin-5(6H)-yl)-2-(((2R,7aS)-2-fluorohexahydro-1H-pyrrolizin-7a-yl)methoxy)-5,6-dihydropyrido[3,4-d]pyrimidin-7(8H)-yl)-5-ethyl-6-fluoronaphthalen-2-ol]	26	1970	42	4950	396

Other lines, results leading:

IC50 (KRas G12R) [nM]	IC50 (H727 cells) [nM]	IC50 (KRas G12V) [nM]	IC50 (ASPC1 cells) [nM]	IC50 (KRas G12D) [nM]	SMILES
5	1200	< 2	1460	3	O=C1NCC12CCCN(c1nc(OC[C@@]34CCCN3C[C@H](F)C4)nc3c1CCN(c1cc(O)cc4ccc(F)c(Br)c14)C3)C2 (stereo partly drawn) [Example 482, 6-(7-(8-bromo-7-fluoro-3-hydroxynaphthalen-1-yl)-2-(((2R,7aS)-2-fluorohexahydro-1H-pyrrolizin-7a-yl)methoxy)-5,6,7,8-tetrahydropyrido[3,4-d]pyrimidin-4-yl)-2,6-diazaspiro[3.5]nonan-1-one]
1160	–	886	–	755	CCc1c(F)ccc2cc(O)cc(N3CCc4c(nc(N5CC(N)C5)nc4N4CCC[C@@](C)(O)C4)C3)c12 [Example 486, (R)-1-(2-(3-aminoazetidin-1-yl)-7-(8-ethyl-7-fluoro-3-hydroxynaphthalen-1-yl)-5,6,7,8-tetrahydropyrido[3,4-d]pyrimidin-4-yl)-3-methylpiperidin-3-ol]
553	–	702	–	761	CCc1c(F)ccc2cc(O)cc(N3CCc4c(nc(OC[C@@]56CCCN5C[C@H](F)C6)nc4N4CCCC5(CCCC5)C4)C3)c12 [Example 489, 5-ethyl-6-fluoro-4-(2-(((2R,7aS)-2-fluorohexahydro-1H-pyrrolizin-7a-yl)methoxy)-4-(7-azaspiro[4.5]decan-7-yl)-5,6-dihydropyrido[3,4-d]pyrimidin-7(8H)-yl)naphthalen-2-ol]
13	–	14	–	16	CCc1c(F)ccc2cc(O)cc(N3CCc4c(nc(OC[C@@]56CCCN5C[C@H](F)C6)nc4N4CCCC5(C4)NC(=O)N(C)C5=O)C3)c12 (stereo partly drawn) [Example 644, 7-(7-(8-ethyl-7-fluoro-3-hydroxynaphthalen-1-yl)-2-(((2R,7aS)-2-fluorotetrahydro-1H-pyrrolizin-7a(5H)-yl)methoxy)-5,6,7,8-tetrahydropyrido[3,4-d]pyrimidin-4-yl)-3-methyl-1,3,7-triazaspiro[4.5]decane-2,4-dione]

From US20250368649A1, “TETRAHYDROPYRIDOPYRIMIDINE PAN-KRAS INHIBITORS” (Mirati Therapeutics, Inc., priority 2022, published 2025)
